Experimental findings from PMC8126241, “Active Components from Cassia abbreviata Prevent HIV-1 Entry by Distinct Mechanisms of Action” (International Journal of Molecular Sciences, 2021) are described below.

Data set [1] deals with Human corona virus. The data set can be described thus: Broad spectrum antiviral activity, HEL cells. It is filed as cell-based.
Data set [2] deals with Hepatitis C virus (Jc1). The data set can be described thus: Broad spectrum antiviral activity, Huh 7-D cells. It is filed as cell-based.
Data set [3] relates to Influenza B B/Ned/537/05. In words: microbe, parasite or virus in culture. It is filed as cell-based. The following applies: MDCK cells.
The test system of data set [4] is Herpes simplex virus-1 (KOS). The data set can be described thus: Broad spectrum antiviral activity, HEL cells. It is filed as cell-based.
In data set [5] the test system is Influenza A/H1N1 A/Ned/378/05. The data set can be described thus: Broad spectrum antiviral activity, MDCK cells. It is filed as cell-based. Conditions: Influenza A virus.
For data set [6], the system named is Respiratory syncytial virus. In words: Broad spectrum antiviral activity, HeLa cells. It is filed as cell-based. Conditions: human respiratory syncytial virus.
Data set [7] concerns HIV-1 ADA-M. In words: Dual chamber transmission assay, HeLa upper chamber / TZM-bl lower chamber. The following applies: dual-chamber system, at IC50 concentration. It is filed as cell-based. As to the method: (§1) Dual chamber transmission assay was performed as previously described. HeLa cells were seeded into an upper chamber of a transwell plate (Sigma-Aldrich, Liège, Belgium), while TZM-bl cells were seeded in the lower chamber. Trans Epithelial Electric Resistance (TEER) was measured using Millicell-ERS Volt-Ohm Meter. HIV-1 ADA-M (200 pg) and drugs were added to the upper chamber after 4 days when TEER reached 150 Ohm/cm^2. 24 h after infection luciferase value of TZM-bl cells lysate was measured using the Luciferase System Kit and the POLARstar Omega Plate Reader. Data were analyzed using GraphPrism. The HIV-1 DC-SIGN transmission assay was performed as previously described.

Data set [8] relates to pseudotype virus pNL4.3ΔEnvLuc-HXB2. The following applies: multi-dosing time assay.
Data set [9] deals with HIV-1 IIIB. In words: microbe, parasite or virus in culture. Conditions: Human immunodeficiency virus 1, IIIB, PBMC, 168 h, read-out: IC50 HIV-1 IIIB.
The subject of data set [10] is HeLa cells. How it is done: as §1
Data set [11] concerns Coxsackie virus B4. The data set can be described thus: Broad spectrum antiviral activity, HeLa cells. It is filed as cell-based. The following applies: Enterovirus B.
Data set [12] has as its system Yellow fever virus. In words: microbe, parasite or virus in culture. It is filed as cell-based. The following applies: Vero.
In data set [13] the test system is Coxsackie virus B4. The data set can be described thus: Broad spectrum antiviral activity, vero cells. The following applies: Enterovirus B. It is filed as cell-based.
Data set [14] concerns sindbisvirus. In words: Broad spectrum antiviral activity, vero cells. In kind it is cell-based.
Data set [15] has as its system PBMCs.
Data set [16] concerns pseudotype virus pNL4.3ΔEnvLuc-HXB2. The data set can be described thus: microbe, parasite or virus in culture. The following applies: Human immunodeficiency virus 1, HXB2, read-out: IC50 HIV-1 entry.
Data set [17] concerns PBMCs. In kind it is cell-based, human. As to the method:
To assess drug cytotoxicity, PBMCs were incubated with or without drugs in a 96-well round bottom plate (Thermo Fisher, Asse, Belgium) at 2 × 10^5/200 μL/well. After 2 days, cells were washed with PBS and stained with 0.1 μL near-IR fluorescent reactive dye (Life technologies, Ghent, Belgium) in 100 μL PBS for 20 min at room temperature in dark. Stained cells were measured by flow cytometry (FACSCanto, BD biosciences, Belgium).

Read-outs that look alike come from different tables or passages of the source. Bounds are passed on as bounds.

In general, IC50 refers to the midpoint of a concentration-inhibition curve. For the compound `Oc1cc(O)cc(/C=C/c2ccc(O)c(O)c2)c1` [piceatannol, trans-3,3′,4,5′-tetrahydroxystilbene], the IC50 in data set [1] is over 100 µM; in [2], over 100 µM; in data set [3] it was over 100 µM; in data set [4] it was 47.5 ± 3.5 µM; in data set [4] (Human alphaherpesvirus 1, HEL), about 45 µM; in [5], over 100 µM. For the same compound, the IC50 in data set [6] is over 100 µM; in [9] it was 24.2 ± 7.13 µM; in data set [11], over 100 µM; in [12] it was over 100 µM; in data set [13], over 100 µM; in data set [14], over 100 µM. The IC50 in [16] is 10.3 ± 5.74 µM. For the same compound, the “Decrease of HIV-1 infection” value in data set [7] is reported as 33%. In data set [7] (24 h post-infection), the “HIV-1 infection of TZM-Bl cells relative to control (100)” value worked out at 66.9%. For the same compound, in [8] (2 h after spinoculation (post-infection)), the “Inhibitory effect when added after infection” value was “did not find any effect”. For the same compound, the “Inhibitory effect when pre-incubated with cells” value in data set [8] (2 h pre-incubation on cells, HXB2 and BAL pseudotypes) was “inhibited HIV-1 infection at high concentration”. Also, the “Inhibitory effect when pre-incubated with the virus” value in [8] (2 h pre-incubation on virus, HXB2 and BAL pseudotypes) is “not pre-incubated with the virus”. Also, the “Effect on confluence layer's TEER and epithelial cells viability” value in data set [10] is “without affecting”. Moreover, the “Effect on expression of CD25 and CD69” value in data set [15] was “did not have any effect”. Moreover, the “Cytotoxicity in PBMCs” value in data set [17] was “not cytotoxic”.
